PMC7332792 (Acta Pharmaceutica Sinica. B, 2020)
Bridge positions count the residues as written; N and C are the ends. Ends that are not written are not given here.

T1: human LAG-3 protein (human, UniProt P18627, labeled with Red-NHS647 dye (in the MST assay))
T1 sequence: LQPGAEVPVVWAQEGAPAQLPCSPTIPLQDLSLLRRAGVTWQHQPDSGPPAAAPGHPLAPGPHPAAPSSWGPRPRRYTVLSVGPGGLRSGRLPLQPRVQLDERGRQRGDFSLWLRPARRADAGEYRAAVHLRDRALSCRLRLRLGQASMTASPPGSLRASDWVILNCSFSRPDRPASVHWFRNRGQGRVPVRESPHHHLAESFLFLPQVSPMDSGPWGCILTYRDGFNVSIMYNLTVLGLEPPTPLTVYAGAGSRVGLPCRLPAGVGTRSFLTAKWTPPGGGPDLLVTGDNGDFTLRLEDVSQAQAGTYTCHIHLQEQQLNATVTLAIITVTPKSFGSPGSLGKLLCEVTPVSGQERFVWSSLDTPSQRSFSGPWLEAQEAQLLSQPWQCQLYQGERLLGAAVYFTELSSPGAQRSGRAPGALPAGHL


Columns and labels:
human LAG-3 protein = target: T1, human LAG-3 protein; assay: MST

| Molecule | immune response (immunogenicity) in mice (mice with or without CT26 xenograft) | IgG levels in the blood (naïve mice and CT26 tumor bearing mice after 14 days of C25 treatment, ELISA, versus control, n = 5) | Kd (human LAG-3 protein) |
| --- | --- | --- | --- |
| CSCC[C@@H]1NC(=O)[C@@H]2CCCN2C(=O)[C@H](C(C)C)NC(=O)[C@@H](N)CSSC[C@@H](C(=O)O)NC(=O)[C@H](C)NC(=O)[C@H](CCCNC(=N)N)NC(=O)[C@H](Cc2ccc(O)cc2)NC(=O)[C@H]([C@@H](C)O)NC1=O [C25] | did not cause significant immune response in mice | not significantly different from those in the control group | – |
| CNMHTPMVC (disulfide 1-9) [cyclic peptide C17] | – | – | 1.83 µM |
| CNWMINKEC (disulfide 1-9) [cyclic peptide C19] | – | – | 5.05 µM |
